In US20210300940A1 (Merck Patent GmbH, priority 2018, published 2021):
Counter-ions that a name gives are not always drawn.

Columns and labels:
TLR7 = target: T1, TLR7 (Homo sapiens, UniProt Q9NYK1); test: HEK/293 TLR7 Cell Assay; type: cell-based; conditions: TLR7/NFKb HEK cells, R848 agonist 10 uM final concentration, Steady-Glo readout; read-out: TLR7 potency
T1 construct: expressed in transfected cells; host or cells: HEK/293 cells carrying TLR7 and an NF-kB luciferase reporter
T1 sequence (Q9NYK1 27-1049): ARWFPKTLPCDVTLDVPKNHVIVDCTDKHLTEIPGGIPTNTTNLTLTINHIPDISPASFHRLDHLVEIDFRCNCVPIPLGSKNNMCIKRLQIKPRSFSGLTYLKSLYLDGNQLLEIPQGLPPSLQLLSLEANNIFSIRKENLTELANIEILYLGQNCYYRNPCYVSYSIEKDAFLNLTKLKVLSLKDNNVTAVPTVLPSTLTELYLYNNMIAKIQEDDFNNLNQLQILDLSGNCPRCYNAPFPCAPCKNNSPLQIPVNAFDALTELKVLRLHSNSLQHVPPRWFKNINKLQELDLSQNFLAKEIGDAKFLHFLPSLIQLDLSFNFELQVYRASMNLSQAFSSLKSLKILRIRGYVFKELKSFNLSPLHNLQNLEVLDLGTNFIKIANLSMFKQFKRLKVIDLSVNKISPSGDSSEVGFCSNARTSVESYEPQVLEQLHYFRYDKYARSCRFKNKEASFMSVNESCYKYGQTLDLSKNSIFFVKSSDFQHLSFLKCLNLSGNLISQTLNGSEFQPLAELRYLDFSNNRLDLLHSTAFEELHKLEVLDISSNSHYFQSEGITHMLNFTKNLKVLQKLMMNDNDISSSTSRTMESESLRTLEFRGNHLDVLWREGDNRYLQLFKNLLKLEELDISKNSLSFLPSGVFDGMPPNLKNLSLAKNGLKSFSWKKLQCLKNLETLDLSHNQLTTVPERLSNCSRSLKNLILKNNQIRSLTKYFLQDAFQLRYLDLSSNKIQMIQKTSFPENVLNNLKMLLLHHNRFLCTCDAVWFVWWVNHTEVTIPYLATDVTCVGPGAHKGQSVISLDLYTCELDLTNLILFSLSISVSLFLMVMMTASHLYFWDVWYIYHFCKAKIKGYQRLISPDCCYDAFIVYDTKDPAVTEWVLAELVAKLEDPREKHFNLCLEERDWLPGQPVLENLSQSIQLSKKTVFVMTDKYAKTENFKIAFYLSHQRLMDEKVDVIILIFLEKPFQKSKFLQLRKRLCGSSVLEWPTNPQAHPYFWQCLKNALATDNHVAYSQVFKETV
Protocol: (§1) Example 389: HEK/293 TLR7 Cell Assay Into 384 CulturePlates (Corning 3765) was placed 5000 c/w of TLR7/NFKb HEK cells in 30 uL DMEM without Phenol red (gibco #31053-028) and 10% heat inactivated fetal bovine serum, 10% penicillin-streptomycin, and 2 mM L-Glutamine. The cells were incubated for 24 h at 37° C., 10% carbon dioxide and 90% relative humidity. 3 uL of controls, standards, and compounds were dispensed into wells, incubated for 30 min then 3 uL of R848 agonist (10 uM final concentration) was added in 20 mM Hepes. After incubation for 5 hours, they were allowed to stand at room temperature for 15 min. To this was added 10 uL of Steady-Glo substrate reagent and shake assay plate for 5 min at 1500 rpm. The assay plate was allowed to sit for 30 min at room temperature and then the plate was read on EnVision.

TLR8 = target: T2, TLR8 (Homo sapiens, UniProt Q9NR97); test: HEK/293 TLR8 Cell Assay; type: cell-based; conditions: HEK cells, R848 agonist 30 uM final concentration, Steady-Glo readout; read-out: TLR8 potency
T2 construct: expressed in transfected cells; host or cells: HEK/293 reporter cells (NF-kB luciferase)
T2 sequence (Q9NR97 27-1041): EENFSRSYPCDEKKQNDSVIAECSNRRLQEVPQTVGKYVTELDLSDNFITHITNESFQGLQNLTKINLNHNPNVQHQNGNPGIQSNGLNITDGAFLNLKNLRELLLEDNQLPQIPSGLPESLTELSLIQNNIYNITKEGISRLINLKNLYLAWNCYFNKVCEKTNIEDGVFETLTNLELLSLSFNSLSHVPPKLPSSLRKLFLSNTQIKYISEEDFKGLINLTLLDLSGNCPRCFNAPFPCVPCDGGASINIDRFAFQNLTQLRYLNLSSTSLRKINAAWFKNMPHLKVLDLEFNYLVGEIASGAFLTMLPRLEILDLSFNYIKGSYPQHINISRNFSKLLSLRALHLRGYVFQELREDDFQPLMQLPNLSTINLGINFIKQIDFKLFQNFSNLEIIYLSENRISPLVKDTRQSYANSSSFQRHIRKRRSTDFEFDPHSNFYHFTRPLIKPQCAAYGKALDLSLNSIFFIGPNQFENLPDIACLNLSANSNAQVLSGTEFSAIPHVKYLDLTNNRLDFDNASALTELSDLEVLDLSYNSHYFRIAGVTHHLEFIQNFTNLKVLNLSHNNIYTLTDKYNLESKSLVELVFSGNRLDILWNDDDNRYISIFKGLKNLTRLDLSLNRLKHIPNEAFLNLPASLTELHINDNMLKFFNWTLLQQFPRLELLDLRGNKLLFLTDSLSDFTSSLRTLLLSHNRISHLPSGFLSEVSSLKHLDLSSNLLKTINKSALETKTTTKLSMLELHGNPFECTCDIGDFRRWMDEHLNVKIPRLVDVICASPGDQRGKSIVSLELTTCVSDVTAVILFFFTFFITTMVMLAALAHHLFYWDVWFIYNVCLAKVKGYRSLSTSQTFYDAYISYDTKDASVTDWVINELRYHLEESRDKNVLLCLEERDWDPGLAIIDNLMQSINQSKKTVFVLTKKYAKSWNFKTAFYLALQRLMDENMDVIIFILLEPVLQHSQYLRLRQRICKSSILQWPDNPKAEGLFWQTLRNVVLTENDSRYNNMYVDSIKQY
Protocol: as §1, with “Example 390:” for “Example 389:”, “HEK/293 TLR8” for “HEK/293 TLR7”, “serum, 1%” for “serum, 10%”, “agonist (30” for “agonist (10”

IC50 (TLR7)	IC50 (TLR8)	SMILES
< 75 nM	< 75 nM	CCN(C)CCNC(=O)[C@H]1CN(c2cnc(C#N)c3ncccc23)C[C@@H](C)O1 [Example 270, (2R,6R)-4-(8-Cyano-[1,7]naphthyridin-5-yl)-6-methyl-morpholine-2-carboxylic acid [2-(ethyl-methyl-amino)-ethyl]-amide]
> 150 nM	> 150 nM	C[C@@H]1CN(c2cnc(C#N)c3ncccc23)C[C@H](CNCC(O)CF)O1 (stereo partly drawn) [Example 373, 5-{(2S,6R)-2-[(3-Fluoro-2-hydroxy-propylamino)-methyl]-6-methyl-morpholin-4-yl}-[1,7]naphthyridine-8-carbonitrile]
< 75 nM	< 75 nM	CN1CCC(F)(CNC(=O)[C@H]2CN(c3ccc(C#N)c4nccnc34)C[C@@H](C(F)(F)F)O2)CC1 (single isomer, unassigned) [Example 359]
< 75 nM	< 75 nM	N#Cc1ccc(N2C[C@@H](C(F)(F)F)O[C@@H](C(=O)NCC3(F)CCNCC3)C2)c2nccnc12 (single isomer, unassigned) [Example 305]
< 75 nM	> 150 nM	C[C@@H]1CN(c2cnc(C#N)c3ncccc23)C[C@H](C(=O)NCC2(F)CCN(C)CC2)O1 [Example 348, (2R,6R)-4-(8-Cyano-[1,7]naphthyridin-5-yl)-6-methyl-morpholine-2-carboxylic acid (4-fluoro-1-methyl-piperidin-4-ylmethyl)-amide]
75 to 150 nM	75 to 150 nM	CN1CC[C@@](F)(CNC(=O)[C@@H]2CN(c3cnc(C#N)c4ncccc34)C[C@H](C(F)(F)F)O2)C1 (single isomer, unassigned) [Example 349]
< 75 nM	< 75 nM	COc1ncc(N2C[C@@H](C)C[C@@H](N)C2)c2cccnc12 [Example 151, (3R,5S)-1-(8-Methoxy-[1,7]naphthyridin-5-yl)-5-methyl-piperidin-3-ylamine]
< 75 nM	< 75 nM	N#Cc1ccc(N2C[C@@H](C(=O)NCC3(F)CCNCC3)O[C@@H](C(F)(F)F)C2)c2nccnc12 (single isomer, unassigned) [Example 306]
< 75 nM	< 75 nM	C[C@H]1C[C@@H](NC(=O)CCN(C)C)CN(c2ccc(C(F)(F)F)c3ncccc23)C1 [Example 186, 3-Dimethylamino-N-[(3R,5S)-5-methyl-1-(8-trifluoromethyl-quinolin-5-yl)-piperidin-3-yl]-propionamide]
75 to 150 nM	75 to 150 nM	Cc1ncc(N2C[C@H](NC(=O)CN3CCN(C)CC3)C[C@H](C(F)(F)F)C2)c2cccnc12 [Example 70, N-[(3R,5S)-1-(8-methyl-1,7-naphthyridin-5-yl)-5-(trifluoromethyl)piperidin-3-yl]-2-(4-methylpiperazin-1-yl)acetamide]
< 75 nM	< 75 nM	C[C@@H]1CN(c2cnc(C#N)c3ncccc23)C[C@H](C(=O)NC2CCC(N3CCOCC3)CC2)O1 (stereo partly drawn) [Example 277, (2R,6R)-4-(8-Cyano-[1,7]naphthyridin-5-yl)-6-methyl-morpholine-2-carboxylic acid (4-morpholin-4-yl-cyclohexyl)-amide]
< 75 nM	< 75 nM	CN1CCC(O)(CC(=O)N[C@@H]2C[C@H](C(F)(F)F)CN(c3ccc(C(F)(F)F)c4ncccc34)C2)CC1 [Example 67, 2-(4-hydroxy-1-methylpiperidin-4-yl)-N-[(3R,5S)-5-(trifluoromethyl)-1-[8-(trifluoromethyl)quinolin-5-yl]piperidin-3-yl]acetamide]

SMILES	IC50 (TLR7)	IC50 (TLR8)
C[C@@H]1CN(c2ccc(C#N)c3nccnc23)C[C@H](CSC2CN(CC(C)(C)O)C2)O1 [Example 226, 8-{(2R,6R)-2-[1-(2-Hydroxy-2-methyl-propyl)-azetidin-3-ylsulfanylmethyl]-6-methyl-morpholin-4-yl}-quinoxaline-5-carbonitrile]	< 75 nM	< 75 nM
C[C@H]1C[C@@H](N)CN(c2cc(F)c(C#N)c3ncccc23)C1 [Example 57, 5-((3R,5S)-3-Amino-5-methyl-piperidin-1-yl)-7-fluoro-quinoline-8-carbonitrile]	< 75 nM	< 75 nM
C[C@H](O)CNC(=O)[C@@H]1CN(c2ccc(C#N)c3nccnc23)C[C@H](C(F)(F)F)O1 (single isomer, unassigned) [Example 287]	75 to 150 nM	75 to 150 nM
C[C@H]1C[C@@H](NC(=O)CC2(O)CCN(C)CC2)CN(c2ccc(C#N)c3nccnc23)C1 [Example 72, N-[(3R,5S)-1-(8-cyanoquinoxalin-5-yl)-5-methylpiperidin-3-yl]-2-(4-hydroxy-1-methylpiperidin-4-yl)acetamide hydrochloride]	< 75 nM	< 75 nM
N#Cc1ccc(N2C[C@@H](C(F)(F)F)O[C@@H](C(=O)N3C[C@@H](N)C4(CC4)C3)C2)c2nccnc12 (single isomer, unassigned) [Example 311]	< 75 nM	< 75 nM
C[C@H]1C[C@@H](NC(=O)[C@@H]2CCCN2)CN(c2ccc(C#N)c3nccnc23)C1 [Example 175, (S)-Pyrrolidine-2-carboxylic acid [(3R,5S)-1-(8-cyano-quinoxalin-5-yl)-5-methyl-piperidin-3-yl]-amide]	75 to 150 nM	< 75 nM
C[C@H]1C[C@@H](NCC(C)(C)O)CN(c2ccc(C#N)c3nccnc23)C1 [Example 16, 8-[(3R,5S)-3-(2-Hydroxy-2-methyl-propylamino)-5-methyl-piperidin-1-yl]-quinoxaline-5-carbonitrile formic acid]	< 75 nM	< 75 nM
